Measurements published in patent publication US12371454B2, “Cyclic peptide compound having Kras inhibitory action” (priority 2019, dated 2025).
Starred links: 1 amine or outer side, 2 acyl side, 3 side chain; linkers in the order of their positions; H or OH if unused. Positions of bridges follow the written chain, without caps; N, C: chain ends. Non-standard residues stand in square brackets, D forms with d. Residues, ends and D or L forms follow the SMILES beside them. *: point of attachment. hPhe(3-Cl-4-CF3) = N[C@@H](CCc1ccc(C(F)(F)F)c(Cl)c1)C(=O)O; hPhe(4-CF3) = N[C@@H](CCc1ccc(C(F)(F)F)cc1)C(=O)O; NMePhe(4-Cl) = CN[C@@H](Cc1ccc(Cl)cc1)C(=O)O; NMePhe(4-Me) = CN[C@@H](Cc1ccc(C)cc1)C(=O)O; NMedβ3hAla = C[C@H](CC(=O)[*:2])N(C)[*:1]; Phe(3-Cl) = N[C@@H](Cc1cccc(Cl)c1)C(=O)O; hPhe(4-F) = N[C@@H](CCc1ccc(F)cc1)C(=O)O; NMeGly(cPent) = CN[C@H](C(=O)O)C1CCCC1; X26 = O=C([C@@H]1CCC[C@H]1N[*:1])[*:2]; NMeCha = CN[C@@H](CC1CCCCC1)C(=O)O; NMehLeu = CN[C@@H](CCC(C)C)C(=O)O; NMeF = CN[C@@H](Cc1ccccc1)C(=O)O; NMeI = CC[C@H](C)[C@H](NC)C(=O)O; N(CH2CH2)2CF2 = FC1(F)CCN(*)CC1; NMeD = CN[C@@H](CC(=O)O)C(=O)O; NMeL = CN[C@@H](CC(C)C)C(=O)O; NMeV = CN[C@H](C(=O)O)C(C)C; d(β3hA) = C[C@@H](N)CC(=O)O; NMeS = CN[C@@H](CO)C(=O)O; Pip = O=C(O)[C@@H]1CCCCN1; NMeA = CN[C@@H](C)C(=O)O; Pyrrolidide = C1CCN(*)C1; Ac5c = NC1(C(=O)O)CCCC1; Aze = O=C(O)[C@@H]1CCN1; Aib = CC(C)(N)C(=O)O; Isopentyl = CC(C)CC*; NEtG = CCNCC(=O)O; Sar = CNCC(=O)O

Biological target: T1, Kras and SOS1 (biotin-tagged human Kras loaded with GDP, His-tagged human SOS1) (Homo sapiens, UniProt P01116, G12D)
T1 construct: made in house; host or cells: E. coli (stated for Kras only)
T1 sequence (P01116 1-188 isoform P01116-2 G12D): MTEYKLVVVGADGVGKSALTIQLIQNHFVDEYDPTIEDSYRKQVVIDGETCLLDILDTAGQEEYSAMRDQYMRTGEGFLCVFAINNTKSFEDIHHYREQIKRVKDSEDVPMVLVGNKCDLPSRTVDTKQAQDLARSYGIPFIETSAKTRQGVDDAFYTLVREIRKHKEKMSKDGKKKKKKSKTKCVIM
Assay: Protein-protein interaction inhibition between Kras and SOS1 (KrasGl2D-SOS PPI) using AlphaScreen
Format: binding
Conditions: AlphaScreen; biotin-tagged human Kras loaded with GDP, His-tagged human SOS1; read-out: KRAS G12D-SOS PPI IC50
Protocol: Protein-Protein Interaction Inhibition Between Kras and SOS1 (KrasGl2D-SOS PPI) Using AlphaScreen
Protein-protein interaction inhibition (PPI) between Kras and SOS1 was measured by energy transfer from nickel-conjugated donor beads to streptavidin-conjugated acceptor beads using biotin-tagged human Kras expressed in E. coli and loaded with GDP after purification and His-tagged human SOS1 enzyme. This measurement utilizes the phenomenon in which donor beads are irradiated with light at 680 nm, such that energy is transferred to acceptor beads through singlet oxygen and light at 520-620 nm is detected from the acceptor beads.
Inhibition of binding between K-ras and SOS1 is known to inhibit signaling downstream of Kras.

Q: For `CC[C@H](C)[C@@H]1NC(=O)[C@H](CC(C)C)N(C)C(=O)C[C@@H](C)N(C)C(=O)[C@H](CCC(C)C)N(C)C(=O)C2(CCCC2)NC(=O)[C@@H]2CCCN2C(=O)[C@H](CCc2ccc(C(F)(F)F)c(Cl)c2)NC(=O)CN(C)C(=O)[C@H](CC2CCCCC2)N(C)C(=O)CN(C)C(=O)CN(C)C1=O` [Compound 22] (cyclo([Ac5c][NMehLeu][NMedβ3hAla][NMeL]I[Sar][Sar][NMeCha][Sar][hPhe(3-Cl-4-CF3)]P)), which IC50 is on record?
A: Its IC50 is 110 nM.

Q: Which IC50 does the source give for `CC[C@H](C)[C@@H]1NC(=O)[C@H](CC(C)C)N(C)C(=O)C[C@@H](C(=O)N(C)C)N(C)C(=O)[C@H](C2CCCC2)N(C)C(=O)[C@H](C(C)C)NC(=O)[C@@H](C)NC(=O)[C@H](CCc2ccc(C(F)(F)F)c(Cl)c2)NC(=O)CN(C)C(=O)[C@H](CC2CCCCC2)N(C)C(=O)[C@@H]2CCN2C(=O)[C@H](C)N(C)C1=O` [Compound 24] ([NMeL]I[NMeA][Aze][NMeCha][Sar][hPhe(3-Cl-4-CF3)][dA]V[NMeGly(cPent)][NMeD]-NMe2; lactam N-11) here?
A: Its IC50 is 25 nM.

Q: `CC[C@H](C)[C@@H]1NC(=O)[C@H](C)N(C)C(=O)[C@@H]2CCC[C@H]2NC(=O)[C@H](CC(C)C)N(C)C(=O)[C@H](Cc2ccccc2)N(C)C(=O)[C@@H]2CCCN2C(=O)[C@H](CCc2ccc(C(F)(F)F)cc2)NC(=O)CN(C)C(=O)[C@H](Cc2ccc(Cl)cc2)N(C)C(=O)CN(C)C(=O)CN(C)C1=O` [Compound 25] (cyclo(I[Sar][Sar][NMePhe(4-Cl)][Sar][hPhe(4-CF3)]P[NMeF][NMeL][X26][NMeA])) was tested. Which IC50 did it give?
A: The IC50 was 150 nM.

Q: With `CC[C@H](C)[C@@H]1NC(=O)[C@H](CC(C)C)N(C)C(=O)C[C@@H](C(=O)N2CCCC2)N(C)C(=O)[C@H](C2CCCC2)N(C)C(=O)C2(CCCC2)NC(=O)[C@H](CC(=O)N2CCC(F)(F)CC2)N(C)C(=O)[C@H](CCc2ccc(C(F)(F)F)c(Cl)c2)NC(=O)CN(C)C(=O)[C@H](CC2CCCCC2)N(C)C(=O)[C@@H]2CCN2C(=O)[C@H](C)N(C)C1=O` [Compound 26] ([NMeL]I[NMeA][Aze][NMeCha][Sar][hPhe(3-Cl-4-CF3)][NMeD](N(CH2CH2)2CF2)[Ac5c][NMeGly(cPent)][NMeD]-Pyrrolidide; lactam N-11) as the compound, how does the IC50 read?
A: The IC50 was 4.3 nM.

Q: For `CC[C@H](C)[C@@H]1NC(=O)[C@H](CC(C)C)N(C)C(=O)C[C@@H](C(=O)N(C)C)N(C)C(=O)[C@H]([C@@H](C)CC)N(C)C(=O)C2(CCCC2)NC(=O)[C@H](COCCC(C)C)N(C)C(=O)[C@H](CCc2ccc(C(F)(F)F)c(Cl)c2)NC(=O)CN(C)C(=O)[C@H](Cc2ccc(C)cc2)N(C)C(=O)[C@@H]2CCN2C(=O)[C@H](C)N(C)C1=O` [Compound 27, (3S,6S,9S,13S,16S,22S,25S,31S,34S)-25-[2-[3-chloro-4-(trifluoromethyl)phenyl]ethyl]-9-isobutyl-22-(isopentyloxymethyl)-N,N,3,4,10,14,17,23,29,32-decamethyl-6,16-bis[(1S)-1-methylpropyl]-2,5,8,11,15,18,21,24,27,30,33-undecaoxo-31-(p-tolylmethyl)spiro[1,4,7,10,14,17,20,23,26,29,32-undecazabicyclo[32.2.0]hexatriacontane-19,1′-cyclopentane]-13-carboxamide] ([NMeL]I[NMeA][Aze][NMePhe(4-Me)][Sar][hPhe(3-Cl-4-CF3)][NMeS](Isopentyl)[Ac5c][NMeI][NMeD]-NMe2; lactam N-11), which IC50 is on record?
A: The IC50 was 3.3 nM.

Q: How did the IC50 turn out when `CC[C@H](C)[C@@H]1NC(=O)[C@H](C)N(C)C(=O)C[C@@H](C)NC(=O)[C@H](CC(C)C)N(C)C(=O)C(C)(C)NC(=O)[C@H](CC(C)C)N(C)C(=O)[C@H](CCc2ccc(F)cc2)NC(=O)CN(C)C(=O)[C@H](Cc2ccc(Cl)cc2)N(C)C(=O)CN(C)C(=O)CN(C)C1=O` [Compound 28] (cyclo([Aib][NMeL][d(β3hA)][NMeA]I[Sar][Sar][NMePhe(4-Cl)][Sar][hPhe(4-F)][NMeL])) was run?
A: Its IC50 is 160 nM.

Q: Which IC50 does the source give for `CC[C@H](C)[C@@H]1NC(=O)[C@H](C)N(C)C(=O)C[C@@H](C(=O)N2CCCC2)NC(=O)[C@H](C(C)C)N(C)C(=O)[C@H](Cc2ccccc2)N(C)C(=O)[C@H](Cc2ccccc2)NC(=O)[C@H](Cc2cccc(Cl)c2)NC(=O)CN(CC)C(=O)[C@H](Cc2ccc(Cl)cc2)N(C)C(=O)CN(C)C(=O)CN(C)C1=O` [Compound 29] ([NMeA]I[Sar][Sar][NMePhe(4-Cl)][NEtG][Phe(3-Cl)]F[NMeF][NMeV]D-Pyrrolidide; lactam N-11) here?
A: The IC50 was 320 nM.

Q: With `CC[C@H](C)[C@@H]1NC(=O)[C@@H]2CCCCN2C(=O)C[C@@H](C)NC(=O)[C@H](CC(C)C)N(C)C(=O)C(C)(C)NC(=O)[C@H](CC(C)C)N(C)C(=O)[C@H](CCc2ccc(C(F)(F)F)cc2)NC(=O)CN(C)C(=O)[C@H](CC2CCCCC2)N(C)C(=O)CN(C)C(=O)CN(C)C1=O` [Compound 31] (cyclo([Aib][NMeL][d(β3hA)][Pip]I[Sar][Sar][NMeCha][Sar][hPhe(4-CF3)][NMeL])) as the compound, how does the IC50 read?
A: The IC50 was 380 nM.
